Assay results published in PubChem BioAssay AID1963444 (Molecular Pharmacology Branch, DTP, NCI, 2024).
One block for each molecule: values may come before it.

Test system: HSSY-II complex spheroid growth, percent test/control
Assay: Anticancer human tumor HSSY-II cell line growth inhibition [Asc];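 also: spheroids exposed to drug for 7 days before reading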
Conditions: for IC50: curve of first compound; for viability, T/C: stronger effect = lower value
Procedure, shortened: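 Concentration series start at each agent's clinical Cmax, or at 10 microM when none is established, and drop in half-log steps; agents are applied alone or together to complex spheroids built with HUVEC and hMSC.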

[1] = second compound 0.1 µM, first compound 0.0316 µM
[2] = second compound 0.1 µM, first compound 0.1 µM
[3] = second compound 0.1 µM, first compound 0.316 µM
[4] = second compound 0.1 µM, first compound 1 µM
[5] = second compound 0.1 µM, first compound 3.16 µM
[6] = second compound 0.1 µM, first compound 10 µM
[7] = second compound 0.316 µM, first compound 0.0316 µM
[8] = second compound 0.316 µM, first compound 0.1 µM
[9] = second compound 0.316 µM, first compound 0.316 µM
[10] = second compound 0.316 µM, first compound 1 µM
[11] = second compound 0.316 µM, first compound 3.16 µM
[12] = second compound 0.316 µM, first compound 10 µM
[13] = second compound 1 µM, first compound 0.0316 µM
[14] = second compound 1 µM, first compound 0.1 µM
[15] = second compound 1 µM, first compound 0.316 µM
[16] = second compound 1 µM, first compound 1 µM
[17] = second compound 1 µM, first compound 3.16 µM
[18] = second compound 1 µM, first compound 10 µM
[19] = second compound 3.16 µM, first compound 0.0316 µM
[20] = second compound 3.16 µM, first compound 0.1 µM
[21] = second compound 10 µM, first compound 0.0316 µM
[22] = second compound 10 µM, first compound 0.1 µM

IC50 (second compound 0.01 µM): 618 nM | IC50 (second compound 0.0316 µM): 1030 nM | IC50 (second compound 0.1 µM): 876 nM | IC50 (second compound 0.316 µM): 895 nM | IC50 (second compound 1 µM): 650 nM
Structure (SMILES): C=C(F)C(=O)N1CCN(c2nc(OCC3CCCN3C)nc3c2CCN(c2cccc4cccc(Cl)c24)C3)CC1CC#N (stereo not given) + CNC(C)C(=O)NC1CN(S(=O)(=O)c2cccc(S(=O)(=O)N3CCC4CCC(C(=O)NC(c5ccccc5)c5ccccc5)N4C(=O)C(NC(=O)C(C)NC)C3)c2)CCC2CCC(C(=O)NC(c3ccccc3)c3ccccc3)N2C1=O
viability, T/C (second compound 0.01 µM, first compound 0.0316 µM): 95.8% | viability, T/C (second compound 0.01 µM, first compound 0.1 µM): 91% | viability, T/C (second compound 0.01 µM, first compound 0.316 µM): 61.4% | viability, T/C (second compound 0.01 µM, first compound 1 µM): 45.9% | viability, T/C (second compound 0.01 µM, first compound 3.16 µM): 0.97% | viability, T/C (second compound 0.01 µM, first compound 10 µM): 0.1% | viability, T/C (second compound 0.0316 µM, first compound 0.0316 µM): 89.3% | viability, T/C (second compound 0.0316 µM, first compound 0.1 µM): 80.9% | viability, T/C (second compound 0.0316 µM, first compound 0.316 µM): 68.7% | viability, T/C (second compound 0.0316 µM, first compound 1 µM): 53.9% | viability, T/C (second compound 0.0316 µM, first compound 3.16 µM): 0.93% | viability, T/C (second compound 0.0316 µM, first compound 10 µM): 0.1% | viability, T/C [1]: 90% | viability, T/C [2]: 91.2% | viability, T/C [3]: 79.3% | viability, T/C [4]: 47.6% | viability, T/C [5]: 0.66% | viability, T/C [6]: 0.1% | viability, T/C [7]: 88.5% | viability, T/C [8]: 74.5% | viability, T/C [9]: 74.4% | viability, T/C [10]: 47.8% | viability, T/C [11]: 0.45% | viability, T/C [12]: 0.12% | viability, T/C [13]: 79.6% | viability, T/C [14]: 80.6% | viability, T/C [15]: 65.1% | viability, T/C [16]: 41.6% | viability, T/C [17]: 0.37% | viability, T/C [18]: 0.19%

IC50 (second compound 0.01 µM): 88.2 nM | IC50 (second compound 0.0316 µM): 99 nM | IC50 (second compound 0.1 µM): 81.9 nM | IC50 (second compound 0.316 µM): 77.7 nM | IC50 (second compound 1 µM): 67.7 nM
Structure (SMILES): CCN1C(C(=O)NC23CCC(C(=O)O)(CC2)CC3)C(c2cccc(Cl)c2F)C2(C(=O)Nc3cc(Cl)ccc32)C12CCCCC2 (stereo not given) + CNC(C)C(=O)NC1CN(S(=O)(=O)c2cccc(S(=O)(=O)N3CCC4CCC(C(=O)NC(c5ccccc5)c5ccccc5)N4C(=O)C(NC(=O)C(C)NC)C3)c2)CCC2CCC(C(=O)NC(c3ccccc3)c3ccccc3)N2C1=O
viability, T/C (second compound 0.01 µM, first compound 0.00949 µM): 96% | viability, T/C (second compound 0.01 µM, first compound 0.03 µM): 82.6% | viability, T/C (second compound 0.01 µM, first compound 0.0949 µM): 47.9% | viability, T/C (second compound 0.01 µM, first compound 0.3 µM): 14.6% | viability, T/C (second compound 0.01 µM, first compound 0.949 µM): 2.75% | viability, T/C (second compound 0.01 µM, first compound 3 µM): 0.77% | viability, T/C (second compound 0.0316 µM, first compound 0.00949 µM): 84.7% | viability, T/C (second compound 0.0316 µM, first compound 0.03 µM): 65.1% | viability, T/C (second compound 0.0316 µM, first compound 0.0949 µM): 55.9% | viability, T/C (second compound 0.0316 µM, first compound 0.3 µM): 14.8% | viability, T/C (second compound 0.0316 µM, first compound 0.949 µM): 1.52% | viability, T/C (second compound 0.0316 µM, first compound 3 µM): 0.58% | viability, T/C (second compound 0.1 µM, first compound 0.00949 µM): 90% | viability, T/C (second compound 0.1 µM, first compound 0.03 µM): 81.2% | viability, T/C (second compound 0.1 µM, first compound 0.0949 µM): 44.6% | viability, T/C (second compound 0.1 µM, first compound 0.3 µM): 13.4% | viability, T/C (second compound 0.1 µM, first compound 0.949 µM): 1.69% | viability, T/C (second compound 0.1 µM, first compound 3 µM): 0.35% | viability, T/C (second compound 0.316 µM, first compound 0.00949 µM): 95.7% | viability, T/C (second compound 0.316 µM, first compound 0.03 µM): 85.1% | viability, T/C (second compound 0.316 µM, first compound 0.0949 µM): 41.8% | viability, T/C (second compound 0.316 µM, first compound 0.3 µM): 11.2% | viability, T/C (second compound 0.316 µM, first compound 0.949 µM): 1% | viability, T/C (second compound 0.316 µM, first compound 3 µM): 0.23% | viability, T/C (second compound 1 µM, first compound 0.00949 µM): 82.9% | viability, T/C (second compound 1 µM, first compound 0.03 µM): 74.4% | viability, T/C (second compound 1 µM, first compound 0.0949 µM): 39.8% | viability, T/C (second compound 1 µM, first compound 0.3 µM): 9.04% | viability, T/C (second compound 1 µM, first compound 0.949 µM): 1.32% | viability, T/C (second compound 1 µM, first compound 3 µM): 0.3%

IC50 (second compound 0.1 µM): 15.4 nM | IC50 (second compound 0.316 µM): 12.7 nM | IC50 (second compound 1 µM): 7.69 nM | IC50 (second compound 3.16 µM): 8.69 nM | IC50 (second compound 10 µM): 6.57 nM
Structure (SMILES): Cn1ncnc1[C@H]1c2n[nH]c(=O)c3cc(F)cc(c23)N[C@@H]1c1ccc(F)cc1 + Cc1c(S(C)(=O)=O)c(-c2cc(F)cc(N3CCN(c4ccc(NS(=O)(=O)c5ccc(NC(CCN6CCC(C(=O)OCCCP(=O)(O)O)CC6)CSc6ccccc6)c(S(=O)(=O)C(F)(F)F)c5)cc4)CC3)c2)c(-c2ccc(Cl)cc2)n1C(C)C
viability, T/C (second compound 0.1 µM, first compound 0.000316 µM): 100% | viability, T/C (second compound 0.1 µM, first compound 0.001 µM): 98.9% | viability, T/C (second compound 0.1 µM, first compound 0.00316 µM): 81.1% | viability, T/C (second compound 0.1 µM, first compound 0.01 µM): 55.8% | viability, T/C [1]: 39.5% | viability, T/C [2]: 23.1% | viability, T/C (second compound 0.316 µM, first compound 0.000316 µM): 97.6% | viability, T/C (second compound 0.316 µM, first compound 0.001 µM): 82% | viability, T/C (second compound 0.316 µM, first compound 0.00316 µM): 71.7% | viability, T/C (second compound 0.316 µM, first compound 0.01 µM): 55.5% | viability, T/C [7]: 33.6% | viability, T/C [8]: 18.2% | viability, T/C (second compound 1 µM, first compound 0.000316 µM): 96.4% | viability, T/C (second compound 1 µM, first compound 0.001 µM): 82.2% | viability, T/C (second compound 1 µM, first compound 0.00316 µM): 63.4% | viability, T/C (second compound 1 µM, first compound 0.01 µM): 50.3% | viability, T/C [13]: 22.4% | viability, T/C [14]: 13% | viability, T/C (second compound 3.16 µM, first compound 0.000316 µM): 95.8% | viability, T/C (second compound 3.16 µM, first compound 0.001 µM): 84.2% | viability, T/C (second compound 3.16 µM, first compound 0.00316 µM): 73.6% | viability, T/C (second compound 3.16 µM, first compound 0.01 µM): 47.5% | viability, T/C [19]: 21.6% | viability, T/C [20]: 10.4% | viability, T/C (second compound 10 µM, first compound 0.000316 µM): 82.2% | viability, T/C (second compound 10 µM, first compound 0.001 µM): 75.5% | viability, T/C (second compound 10 µM, first compound 0.00316 µM): 65.4% | viability, T/C (second compound 10 µM, first compound 0.01 µM): 42.4% | viability, T/C [21]: 16.9% | viability, T/C [22]: 11.3%

IC50 (second compound 0.1 µM): 2440 nM | IC50 (second compound 0.316 µM): 1960 nM | IC50 (second compound 1 µM): 1500 nM | IC50 (second compound 3.16 µM): 1810 nM | IC50 (second compound 10 µM): 1460 nM
Structure (SMILES): O=C(c1cc(Cc2n[nH]c(=O)c3ccccc23)ccc1F)N1CCN(C(=O)C2CC2)CC1 + Cc1c(S(C)(=O)=O)c(-c2cc(F)cc(N3CCN(c4ccc(NS(=O)(=O)c5ccc(NC(CCN6CCC(C(=O)OCCCP(=O)(O)O)CC6)CSc6ccccc6)c(S(=O)(=O)C(F)(F)F)c5)cc4)CC3)c2)c(-c2ccc(Cl)cc2)n1C(C)C
viability, T/C [1]: 103% | viability, T/C [2]: 98.9% | viability, T/C [3]: 93% | viability, T/C [4]: 77.8% | viability, T/C [5]: 41.7% | viability, T/C [6]: 8.94% | viability, T/C [7]: 82.7% | viability, T/C [8]: 88.3% | viability, T/C [9]: 86.8% | viability, T/C [10]: 78.1% | viability, T/C [11]: 29.8% | viability, T/C [12]: 6.49% | viability, T/C [13]: 81.8% | viability, T/C [14]: 92.8% | viability, T/C [15]: 76.2% | viability, T/C [16]: 64.1% | viability, T/C [17]: 26.4% | viability, T/C [18]: 5.63% | viability, T/C [19]: 93.2% | viability, T/C [20]: 92% | viability, T/C (second compound 3.16 µM, first compound 0.316 µM): 82.5% | viability, T/C (second compound 3.16 µM, first compound 1 µM): 76% | viability, T/C (second compound 3.16 µM, first compound 3.16 µM): 26.5% | viability, T/C (second compound 3.16 µM, first compound 10 µM): 3.28% | viability, T/C [21]: 83.5% | viability, T/C [22]: 90.2% | viability, T/C (second compound 10 µM, first compound 0.316 µM): 78.8% | viability, T/C (second compound 10 µM, first compound 1 µM): 66.7% | viability, T/C (second compound 10 µM, first compound 3.16 µM): 16.9% | viability, T/C (second compound 10 µM, first compound 10 µM): 2.61%
